Laboratory results taken from US4118506A, “Pharmaceutical compositions containing 1,3-dithiol-2-ylidene malonate derivatives” (Nihon Nohyaku Co., Ltd., priority 1976, dated 1978).

Assays:
[1] = tested on: acute liver damage induced by carbon tetrachloride; assay: protective effect on acute liver damage associated with centrilobular necrosis, carbon tetrachloride model; assay type: in vivo, mouse (dd strain); conditions: 250 mg/kg oral 6 h before CCl4, 24 h after CCl4; for p-GPT: values over 1,000 taken as 1,000; for Liver Damage Index: 0 normal, 2 slightly recognized, 4 clearly observable, 6 heavy damage, average of 5 to 6 mice
Excerpt: Carbon tetrachloride (CCl4) administration induces centrilobular necrosis of the liver associated with loss of diphosphopyridine nucleotide, hepatic glycogen, coenzyme A and increase in neutral fat. Release of several enzymes from the hepatocytes, and increase of enzyme activities in the plasma are recognized as the result of the damage of the liver. A suitable means for evaluating the degree of damage induced by CCl4 or the degree of protection afforded by drugs is to study the plasma glutamic-pyruvic transaminase (p-GPT) activity.
Methods: The test compounds were dissolved or suspended in olive oil and administered orally at the dose of 250 mg/kg to the mice (Four-week-old male mice-dd strain). After 6 hours, CCl4 was administered orally (0.05 ml/kg as olive oil solution). Animals were killed 24 hours after CCl4 administration, and the liver was grossly observed. The plasma was obtained by centrifugation. Activities of p-GPT were determined by the method of Reitman and Frankel and expressed in Karmen units.
Score for liver damage index was as follows:
Each figure indicates average of 5 to 6 mice. Values of p-GPT over 1,000 Karmen unit regarded as 1,000 for calculation of average for convenience.

[2] = tested on: acute liver damage induced by bromobenzene; assay: protective effect on acute liver damage associated with centrilobular necrosis, bromobenzene model; assay type: in vivo, rat (SD); conditions: bromobenzene 0.75 ml/kg oral; 100 mg/kg oral 6 h before; 24 h after
Description: (§1) Bromobenzene (hereinafter abbreviated as BB), Dimethylnitrosamine (hereinafter abbreviated as DMN) and chloroform (hereinafter abbreviated as CF) resemble carbon tetrachloride in inducing liver damage associated with centrilobular necrosis.
(§2) Test compound or anethol trithion was orally administered to animal at the dose of 100 mg/kg. Twenty four hours after it (in the case of dimethylnitrosamine, exceptionally fifteen hours after it) the animals were sacrificed and blood samples were collected. Indices of hepatotoxicity adoptable in each chemical were measured, from which the efficacy of the compound was evaluated.
BB male rat 0.75 oral p-GPT activity

[3] = tested on: acute liver damage induced by dimethylnitrosamine; assay: protective effect on acute liver damage associated with centrilobular necrosis, dimethylnitrosamine model; assay type: in vivo, mouse (dd); conditions: dimethylnitrosamine 0.05 ml/kg i.p.; 100 mg/kg oral 6 h before; 15 h after
Description: as §1, §2
DMN male mouse 0.05 intraper-

[4] = tested on: acute liver damage induced by chloroform; assay: protective effect on acute liver damage associated with centrilobular necrosis, chloroform model; assay type: in vivo, mouse (dd); conditions: chloroform 0.2 ml/kg oral; 100 mg/kg oral 6 h before; 24 h after
Description: as §1, §2
CF male mouse 0.2 oral p-GPT activity

[5] = tested on: acute liver damage induced by allyl alcohol; assay: protective effect on acute liver damage associated with periportal necrosis, allyl alcohol model; assay type: in vivo, mouse (dd strain); conditions: 250 mg/kg oral 6 h before allyl alcohol 0.075 ml/kg oral; 24 h after
Description: The compound of this invention or anethol trithion was orally administered to the male mouse (4 week/old, dd strain) at the dose of 250 mg/kg. Six hours after it, allyl alcohol was orally administered at the dose of 0.075 ml/kg. Twenty four hours after it, the animals were sacrificed to collect blood samples.

[6] = tested on: acute liver damage induced by D-galactosamine; assay: protective effect on acute hepatitis with mesenchymal reaction and discrete lobular necrosis, D-galactosamine model; assay type: in vivo, rat (SD strain); conditions: 250 mg/kg oral 6 h before D-galactosamine i.p.
Description: D-Galactosamine is a compound which induces a discrete lobular necrosis associated with mesenchymal reaction similar to the change observed in human viral hepatitis, so that it is frequently used in producing a model for viral hepatitis.
The compound of this invention or anethol trithion was administered orally to the male rat (SD strain) at the dose of 250 mg/kg. Six hours after it, D-galactosamine was intraperitoneally administered at the dose of 600 mg/kg. Four hours after it, an additional 300 mg/kg was administered intraperitoneally. Eight hours after it, the animals were sacrificed to collect the blood samples. P-GPT activity and triglyceride in the liver were measured to evaluate the effect of the compound of this invention.

[7] = tested on: bile flow and excretion of biliary salt; assay: cholagogic action: bile flow and biliary salt excretion; assay type: in vivo, rat (SD-JCL strain); set-up: key to excretion of biliary salt: relative to 1 h pre-drug amount taken as 100
Description: The male rat (4 week-old, SD-JCL strain) was anesthetized with sodium pentobarbital (37.5 mg/kg, intraperitoneal injection). The abdominal cavity was opened through a midline incision. The common bile duct was catheterized with polyethylene tube o.d. 0.8 mm. The catheter was brought to the outside through the abdominal incision wound prior to closing. Bile was collected from the catheter continuously with time intervals of one hour. The quantity of bile produced in one hour was determined by weighing and that of biliary salt was determined by enzymatic method (Ikagaku Jikkenho Koza 1B, Biological Constituents II, edited by Tamino […]). The amount of biliary salts was represented as chloic acid equivalent. In the representation of the results, the quantities of bile and biliary salts produced in one hour prior to the administration of drug were taken as 100. […] As reference, anethol trithion was used.

[8] = tested on: fatty liver induced by ethionine; assay: effect on fatty liver, ethionine model; assay type: in vivo, mouse (dd-strain); conditions: 250 mg/kg oral, simultaneously with (0 hr) ethionine 200 mg/kg i.p.
Excerpt: There are known many factors inducing fatty liver. But, the fatty liver is grouped into a couple of patterns from the mechanism of lipid accumulation or metabolism of lipoprotein in the liver. Ethionine is a typical example which induces first pattern of fatty liver. It inhibits RNA and protein synthesis and destroys polysome of the liver cell. Fatty liver is induced by inhibition of the protein synthesis and disturbance of lipoprotein secretion.
Usually, fatty liver is closely related to the accumulation of triglyceride in the liver. In the present example, the degree of fatty liver and protective or therapeutic effect on the fatty liver was evaluated by measurement of triglyceride content in the liver.
The compounds of this invention and methionine were independently dissolved or suspended into olive oil and administered orally to the male mouse (4 week-old dd-strain) at the dose of 250 mg/kg. One hour before it, simultaneously with it or one hour after it, ethionine dissolved in equimolar NaOH solution was administered intraperitoneally at the dose of 200 mg/kg. Twenty four hours after the administration of ethionine, the animals were sacrificed and triglyceride content in the liver was determined by chromotropic acid method.

[9] = tested on: fatty liver induced by carbon tetrachloride; assay: therapeutic effect on fatty liver, carbon tetrachloride model; assay type: in vivo, rat (SD strain)
Description: Carbon tetrachloride also induces fatty liver, but the picture of disease differs from the case of ethionine-induced fatty liver. Carbon tetrachloride is generally considered to damage microsome and thereby to inhibit protein synthesis and induce fatty liver.
Carbon tetrachloride was subcutaneously administered to 36 week-old male rats (SD strain) for 4 days at the dose of 1 ml/kg. The treated animals were left for 3 days after the last administration to maximize the manifestation of fatty liver.
Administration of Compound 4 was commenced on the fourth day after the administration of carbon tetrachloride was completed. It was orally given everyday for 10 days at the dose of 50 or 250 mg/kg. On the 11th day, the animals were sacrificed by exsanguination. The therapeutic effect was evaluated by determining the content of lipid in the liver (triglyceride and total lipid) and examining the histopathological changes. Triglyceride and total lipid were determined colorimetrically by chromotropic acid method and Bragdon's oxidation method, respectively.
Indices for the histopathological change is as follows: […]

[10] = tested on: glucose metabolic function of liver; assay: effect on glucose metabolism (blood sugar); assay type: in vivo, mouse; conditions: for Blood Sugar: 250 mg/kg oral 6 h before glucose 4.0 g/kg
Description: Methods: The test compounds dissolved in olive oil and administered orally at the dose of 250 mg/kg to the mice. After 6 hours, 4.0 g/kg of glucose was orally administered. The same amount of glucose was given to the control animals. 0.02 ml of blood was taken from caudal vein of the mice at 30, 60, 90 and 120 min. after glucose administration. Blood sugar was measured by the procedure of Somogyi-Nelson. Number of animals used was 5 to 6 mice for each treatment.

[11] = tested on: alcohol metabolic function of liver; assay: effect on concentration of ethyl alcohol in the blood; assay type: in vivo, mouse; conditions: 250 mg/kg oral 6 h before ethanol 1,000 mg/kg
Description: The test compounds are dissolved or suspended in olive oil and administered orally at the dose of 250 mg/kg to the mice. After 6 hours, 1,000 mg/kg of ethyl alcohol was given orally. Blood was taken in a capillary from caudal vein at the time indicated in the results. The plasma was obtained by centrifugation. The concentration of ethyl alcohol in the plasma was measured by FID type gas liquid chromatography. Five mice were used for each group.

## COc1ccc(-c2cc(=S)ss2)cc1 [Anethol trithion, reference compound]
[1]
  p-GPT: 38 Karmen units
[2]
  BSP: 12.9 ± 5.5 mg/dL
  p-GPT: 28 ± 4.1 Karmen unit
[3]
  BSP: 17.6 ± 2.7 mg/dL
  p-GPT: 192 ± 54 Karmen unit
[4]
  p-GPT: > 1000 Karmen unit
[5]
  BSP: 19.3 ± 4.6
[6]
  Triglyceride in the liver: 9.2 ± 1.5 mg/g
[7]; 200 mg/kg oral, 5 hours after treatment, before treatment = 100
  excretion of biliary salt: 33 ± 4.0
[7]; before treatment, 1 hour, taken as 100 (normalisation)
  excretion of biliary salt: 100

## COC(=O)C(C(=O)OC)=C1SC=CS1 [Compound 1]
[1]
  Liver Damage Index: 0.4
  p-GPT: 138 Karmen units

## CSCC[C@H](N)C(=O)O [Methionine, reference compound]
[8]
  Triglyceride: 10.3 ± 0.83 mg/g-liver
[9]; 250 mg/kg, 10 days
  Total lipid: 146.1 ± 13.0 mg/g-liver
  Triglyceride: 47.3 ± 7.3 mg/g-liver
[9]; carbon tetrachloride
  therapeutic effect against fatty liver: hardly exhibited a therapeutic effect

## CCOC(=O)C(C(=O)OCC)=C1SC=CS1 [Compound 2, Diethyl 1,3-dithiol-2-ylidene malonate]
[1]
  Liver Damage Index: 0.2
  p-GPT: 36 Karmen units
[10]; 0 min
  Blood Sugar, percent of 0 min value: 100%
  Blood Sugar: 136 ± 20.4 mg/dL
[10]; 30 min
  Blood Sugar: 295 ± 22.3 mg/dL
  Blood Sugar, percent of 0 min value: 217%
[10]; 60 min
  Blood Sugar: 251 ± 19.6 mg/dL
  Blood Sugar, percent of 0 min value: 185%
[10]; 90 min
  Blood Sugar: 202 ± 12.3 mg/dL
  Blood Sugar, percent of 0 min value: 149%
[10]; 120 min
  Blood Sugar: 158 ± 15.5 mg/dL
  Blood Sugar, percent of 0 min value: 116%

## CCOC(=O)C(C(=O)OC(C)C)=C1SC=CS1 [Compound 7, Ethyl isopropyl 1,3-dithiol-2-ylidene malonate]
[1]
  Liver Damage Index: 0.8
  p-GPT: 102 Karmen units
[11]; 0 min
  Concentration of Ethyl alcohol in Plasma: 30 ± 14 ppm
[11]; 5 min
  Concentration of Ethyl alcohol in Plasma: 830 ± 180 ppm
[11]; 15 min
  Concentration of Ethyl alcohol in Plasma: 799 ± 154 ppm
[11]; 30 min
  Concentration of Ethyl alcohol in Plasma: 448 ± 208 ppm
[11]; 60 min
  Concentration of Ethyl alcohol in Plasma: 158 ± 113 ppm
[11]; 120 min
  Concentration of Ethyl alcohol in Plasma: 12 ± 2 ppm

## COC(=O)C(C(=O)OCC(C)C)=C1SC=CS1 [Compound 8, Methyl isobutyl 1,3-dithiol-2-ylidene malonate]
[1]
  Liver Damage Index: 0.6
  p-GPT: 88 Karmen units

## CC(C)COC(=O)C(C(=O)OCC(C)C)=C1SC=CS1 [Compound 6]
[1]
  Liver Damage Index: 0.4
  p-GPT: 75 Karmen units

## CCCOC(=O)C(C(=O)OCCC)=C1SC=CS1 [Compound 3, Di-n-propyl 1,3-dithiol-2-ylidene malonate]
[1]
  Liver Damage Index: 0.1
  p-GPT: 36 Karmen units

## CCCCOC(=O)C(C(=O)OCCCC)=C1SC=CS1 [Compound 5]
[1]
  Liver Damage Index: 0.4
  p-GPT: 52 Karmen units
